Data: paper PMC7766758, “Furan-Conjugated Tripeptides as Potent Antitumor Drugs” (Biomolecules, 2020)
Values after ≈ are worked out from the molar mass of the structure shown. “Also recorded” adds a separate entry of the source. Read-outs that look alike come from different tables or passages of the source. Square brackets hold non-standard residues; d marks the D form. Side chains are listed from the residue outwards. Peptide text beside a SMILES is read from it. * marks the point of attachment. 2Nal = N[C@@H](Cc1ccc2ccccc2c1)C(=O)O; 2Furoyl = O=C(c1ccco1)*

How the values were obtained:
[1] = tested on: human breast cancer cells MDA-MB-231; assay: Anti-proliferative assay, MDA-MB-231; assay type: cell-based
Procedure: Cells were routinely grown on 25 cm^2 flasks. […] Doxorubicin was used as positive control. […] Experiment was performed in triplicate (n = 3).

[2] = tested on: HUVEC (human umbilical vein endothelial cells)
Procedure: (§1) The anti-proliferative effect of peptides was tested using various normal and cancer cells. […] Normal cells used were NIH-3T3 (ATCC® CRL-1658), human normal endothelial cells (human umbilical vein endothelial cells, HUVEC) (ECACC, Sigma-Aldrich, Lyon, France), and human lung fibroblasts IMR-90 (ATCC® CCL186). NIH-3T3, HeLa, IMR-90, MDA-MB-231, and MCF-7 cells were grown in DMEM supplemented with 10% fetal bovine serum (FBS), 1% L-glutamine, and 1% antibiotics (all from Invitrogen (Carlsbad, CA, USA)). HUVEC cells were cultured in specific medium (endothelial cell growth medium from Sigma Aldrich, Lyon, France). Cells were routinely grown on 25 cm^2 flasks. For anti-proliferative assay, cells were detached from flasks using a trypsin-EDTA solution (from Thermofisher, Illkirch-Graffenstaden, France). After counting using a Malassez chamber, cells were diluted in appropriate culture media and seeded into 96-well cell culture plates (Greiner bio-one, Paris, France) at approximately 6000 cells/well. Cells were then treated with increasing concentration of conjugates diluted in appropriate medium. Doxorubicin was used as positive control. […] Briefly, after exposure to increasing concentrations of conjugates or doxorubicin for 48 h, cell viability was measured using the standard MTT or resazurin assay. For the MTT assay, the supernatant was discarded and 50 µL of 0.5 mg/mL MTT dye was then added to each well and plates were further incubated for 4 h at 37 °C. The MTT was aspirated and 100 µL of DMSO was then added to each well. The extent of MTT reduction to formazan in cells was calculated by measuring the absorbance at 540 nm, using a spectrophotometer (Spectra Max plus, Molecular Devices, CA, USA). For the resazurin assay, the supernatant was discarded and 100 µL of resazurin solution (from Sigma Aldrich, Lyon, France) was added to each well. After 4 h of incubation at 37 °C, fluorescence associated to resazurin biotransformation by live cells was measured using spectrofluorometer (excitation 530 nm/emission 590 nm). […]

[3] = tested on: HeLa cells; assay: Atomic force microscopy of HeLa cells; assay type: cell-based, human; details: 20 µg/mL, 24 h
Procedure: HeLa cells were grown in Dulbecco’s modified eagle medium (DMEM) supplemented with 10% fetal bovine serum. After 70–80% confluency was achieved, cells were treated with conjugate 4 at 20 µg/mL and incubated for 24 h at 37 °C in a 5% CO2 incubator. The next day, these cells were visualized using a microscope. In the untreated control, cells were healthy and attached, therefore, the cells were trypsinized to detach the cells from the wells, and then collected in a sterile Eppendorf tube. In conjugate 4 treated wells, cells were dead and detached. These dead cells were freely floating and therefore the cells were collected without using the trypsinization process in an Eppendorf tube. These cells collected in Eppendorf tubes were washed twice with sterile distilled water and then 10 µL of suspension was deposited into mica chips coated with 0.01% poly-L-lysine, to allow the cells attachment. This cell suspension was then dried at room temperature. Soon after, these mica chips were inserted inside an Agilent Technologies 5500 microscope and the chips were scanned at tapping mode with a silicon nitride cantilever. After finding cells in the chips, these cells were further scanned under a higher magnification. Atomic force microscopy (AFM) topography images were obtained, and we processed them in pseudo color images to differentiate the images according to the height. […]

[4] = tested on: human cervical cancer cells HeLa; assay: Anti-proliferative assay (MTT or resazurin), HeLa; assay type: cell-based; details: for IC50 / IC50 ± SD (µg/mL), proliferation of HeLa cells: 48 h
Procedure: The anti-proliferative effect of peptides was tested using various normal and cancer cells. Human cancer cells used were human cervical cancer cells HeLa (ATCC® CCL-2), and human breast cancer cells MCF-7 (ATCC® HTB22) and MDA-MB-231 (ATCC® HTB-26). Normal cells used were NIH-3T3 (ATCC® CRL-1658), human normal endothelial cells (human umbilical vein endothelial cells, HUVEC) (ECACC, Sigma-Aldrich, Lyon, France), and human lung fibroblasts IMR-90 (ATCC® CCL186). NIH-3T3, HeLa, IMR-90, MDA-MB-231, and MCF-7 cells were grown in DMEM supplemented with 10% fetal bovine serum (FBS), 1% L-glutamine, and 1% antibiotics (all from Invitrogen (Carlsbad, CA, USA)). HUVEC cells were cultured in specific medium (endothelial cell growth medium from Sigma Aldrich, Lyon, France). Cells were routinely grown on 25 cm^2 flasks. For anti-proliferative assay, cells were detached from flasks using a trypsin-EDTA solution (from Thermofisher, Illkirch-Graffenstaden, France). After counting using a Malassez chamber, cells were diluted in appropriate culture media and seeded into 96-well cell culture plates (Greiner bio-one, Paris, France) at approximately 6000 cells/well. Cells were then treated with increasing concentration of conjugates diluted in appropriate medium. Doxorubicin was used as positive control. After 48 h medium was aspirated and the number of viable cells was colorimetrically measured as previously described. Briefly, after exposure to increasing concentrations of conjugates or doxorubicin for 48 h, cell viability was measured using the standard MTT or resazurin assay. For the MTT assay, the supernatant was discarded and 50 µL of 0.5 mg/mL MTT dye was then added to each well and plates were further incubated for 4 h at 37 °C. The MTT was aspirated and 100 µL of DMSO was then added to each well. The extent of MTT reduction to formazan in cells was calculated by measuring the absorbance at 540 nm, using a spectrophotometer (Spectra Max plus, Molecular Devices, CA, USA). For the resazurin assay, the supernatant was discarded and 100 µL of resazurin solution (from Sigma Aldrich, Lyon, France) was added to each well. After 4 h of incubation at 37 °C, fluorescence associated to resazurin biotransformation by live cells was measured using spectrofluorometer (excitation 530 nm/emission 590 nm). In both cases, the antiproliferative activity was recorded as concentration causing 50% growth inhibition (IC50). Experiment was performed in triplicate (n = 3).

[5] = tested on: IMR-90 (normal human fibroblasts)
Procedure: as §1

[6] = tested on: mice normal 3T3 fibroblasts cells
Procedure: as §1

[7] = tested on: human breast cancer cells MCF-7
Procedure: as §1

[8] = tested on: HeLa cells; assay: Rhodamine 123 and propidium iodide staining assay; assay type: cell-based, human
Procedure: As mentioned above, HeLa cells were grown in DMEM medium and seeded 3000 cells/well into 96-well plates. A stock solution of rhodamine 123 (Sigma-Aldrich, St Louis, MO, USA) and prodidium iodide (Sigma-Aldrich, St Louis, MO, USA) at concentrations of 10 and 1 mg/mL were prepared in pure DMSO and water, respectively.
The next day, 1 mL of the fresh media with 2% FBS was made, in which rhodamine 123 and propidium iodide dyes were added to make final concentrations of 10 and 5 µg/mL, respectively. Compounds 4, 4a, and 4b at four different concentrations (10, 20, 30, and 40 µg/mL) were mixed with 1 mL of this media. Old media from the plates were aspirated from each well and 200 µL of fresh media containing compounds, rhodamine 123, and PI dye were added in their respective wells in triplicate and incubated at 37 °C in a 5% CO2 incubator. After 1 and 2 h incubation, media was aspirated from the wells and washed with PBS. These cells were visualized for rhodamine 123 and PI dye staining in a Nikon Eclipse TE2000-U fluorescence microscope at 200× magnification in FITC and TXR filters respectively. Images of cells at the same location for both dyes were captured. Rhodamine 123 and PI staining give green and red fluorescence, respectively. These two different colored images were then merged with one another using ImageJ software (NIH, Bethesda, MD, USA).

[9] = tested on: human breast cancer cells MCF-7; assay: cells; details: MCF7, 48 h, read-out: IC50 (µg/mL) MCF-7
Procedure: as §1

[10] = tested on: HUVEC (human umbilical vein endothelial cells); assay: cells; details: 48 h, read-out: IC50 (µg/mL) HUVEC
Procedure: as §1

[11] = tested on: mice normal 3T3 fibroblasts cells; assay: cells; details: Mus musculus, Fibroblast, 48 h, read-out: IC50 (µg/mL) 3T3
Procedure: as §1

[12] = tested on: IMR-90 (normal human fibroblasts); assay: cells; details: IMR-90, 48 h, read-out: IC50 (µg/mL) IMR-90
Procedure: as §1

[13] = HeLa cells, MTT or resazurin, triplicate
[14] = HeLa cells, MTT or resazurin, read-out: IC50 ± SD (µM), proliferation of HeLa cells

C[C@H](NC(=O)[C@H](Cc1ccc2ccccc2c1)NC(=O)c1ccco1)C(=O)N[C@@H](Cc1ccccc1)C(N)=O [Conjugate 4, 2-Fur^4-L-2-Nal^3-L-Ala^2-L-Phe^1-CONH2]
antiproliferative activity on MDA-MB-231 (in words) [1]: did not inhibit the proliferation | IC50 (µg/mL) MDA-MB-231 ([1]; MDA-MB-231, 48 h, mean ± SD of triplicates): >100 µg/mL | antiproliferative activity on MDA-MB-231 (in words) ([1]; listed as conjugate 4): inactive; also recorded: no effect | antiproliferative activity on HUVEC (in words) [2]: did not inhibit the proliferation | IC50 (µg/mL) HUVEC ([2]; 48 h, mean ± SD of triplicates): >100 µg/mL | effect on HeLa cell membrane seen by AFM [3]: membranolytic effect; also recorded: membranolytic affect | IC50 [4]: 0.28 ± 0.09 µM | IC50 ± SD (µg/mL), proliferation of HeLa cells [4]: 0.15 ± 0.05 µg/mL | antiproliferative activity on IMR-90 (in words) ([5]; IMR-90): did not inhibit the proliferation | IC50 (µg/mL) IMR-90 ([5]; IMR-90, 48 h, mean ± SD of triplicates): >100 µg/mL | antiproliferative activity on 3T3 cells (in words) ([6]; 3T3): did not inhibit the proliferation | IC50 (µg/mL) 3T3 ([6]; 3T3, 48 h, mean ± SD of triplicates): >100 µg/mL | antiproliferative activity on MCF-7 (in words) ([7]; MCF-7): did not inhibit the proliferation | IC50 (µg/mL) MCF-7 ([7]; MCF-7, 48 h, mean ± SD of triplicates): >100 µg/mL | rhodamine 123 fluorescence (mitochondrial membrane potential, MMP) ([8]; HeLa, 40 µg/mL, 1 or 2 h treatment): loss of mitochondrial membrane potential; also recorded: totally suppressed rhodamine fluorescence | PI dye fluorescence (membrane permeabilization) ([8]; HeLa, 20, 30 and 40 µg/mL, 1 or 2 h): increased

C[C@H](NC(=O)[C@H](Cc1ccc2ccccc2c1)NC(=O)c1ccco1)C(=O)N[C@@H](Cc1ccccc1)C(=O)NCCCC[C@H](NC(=O)[C@H](Cc1ccccc1)NC(=O)[C@H](C)NC(=O)[C@H](Cc1ccc2ccccc2c1)NC(=O)c1ccco1)C(N)=O [Conjugate 4b] (2Furoyl-[2Nal]AFK([Phe-Ala-2Nal-2Furoyl])-NH2)
antiproliferative activity against HeLa cells (in words) ([4]; HeLa cells): inactive | IC50 ± SD (µg/mL), proliferation of HeLa cells [4, 13]: > 100 µg/mL | effect on MMP or membrane integrity of HeLa cells (rhodamine 123 / PI) ([8]; HeLa, data not shown): do not affect MMP or the membrane integrity

C[C@H](NC(=O)[C@H](Cc1ccc(O)cc1)NC(=O)[C@H](Cc1ccc2ccccc2c1)NC(=O)c1ccco1)C(N)=O [Conjugate 9, 2-Fur^4-L-2-Nal^3-L-Tyr^2-L-Ala^1-CONH2]
IC50 ± SD (µg/mL), proliferation of HeLa cells [4, 13]: 19.2 ± 3.2 µg/mL | IC50 [4, 14]: 35.4 ± 5.89 µM

C[C@H](NC(=O)[C@H](Cc1ccccc1)NC(=O)[C@H](Cc1ccc2ccccc2c1)NC(=O)c1ccco1)C(N)=O [Conjugate 2, 2-Fur^4-L-2-Nal^3-L-Phe^2-L-Ala^1-CONH2]
IC50 ± SD (µg/mL), proliferation of HeLa cells [4, 13]: 4.40 ± 0.20 µg/mL | IC50 [4, 14]: 8.35 ± 0.37 µM

C[C@H](NC(=O)c1ccco1)C(=O)N[C@@H](Cc1ccc2ccccc2c1)C(=O)N[C@@H](Cc1ccccc1)C(N)=O [Conjugate 7, 2-Fur^4-L-Ala^3-L-2-Nal^2-L-Phe^1-CONH2]
IC50 ± SD (µg/mL), proliferation of HeLa cells [4, 13]: >100 µg/mL | IC50 [4, 14]: > 100 µM

COc1cccc2c1C(=O)c1c(O)c3c(c(O)c1C2=O)C[C@@](O)(C(=O)CO)C[C@@H]3O[C@H]1C[C@H](N)[C@H](O)[C@H](C)O1 [Doxorubicin]
IC50 ([1]; Homo sapiens, MDA-MB-231, 48 h, mean ± SD of triplicates): 0.21 ± 0.03 µg/mL (≈ 0.386 µM) | IC50 [9]: 0.01 ± 0.005 µg/mL (≈ 0.0184 µM) | IC50 [10]: 0.02 ± 0.005 µg/mL (≈ 0.0368 µM) | IC50 ([4]; Homo sapiens, HeLa cells, MTT or resazurin, triplicate, read-out: IC50 ± SD (µg/mL), proliferation of HeLa cells): 3.09 ± 0.16 µg/mL | IC50 [11]: < 1 µg/mL | IC50 [12]: 0.06 ± 0.01 µg/mL (≈ 0.11 µM)

C[C@H](NC(=O)[C@H](Cc1ccc2ccccc2c1)NC(=O)[C@H](Cc1ccc2ccccc2c1)NC(=O)c1ccco1)C(N)=O [Conjugate 5, 2-Fur^4-L-2-Nal^3-L-2-Nal^2-L-Ala^1-CONH2]
IC50 ± SD (µg/mL), proliferation of HeLa cells [4, 13]: 2.59 ± 0.30 µg/mL | IC50 [4, 14]: 4.49 ± 0.52 µM

C[C@H](NC(=O)c1ccco1)C(=O)N[C@@H](Cc1ccccc1)C(=O)N[C@@H](Cc1ccc2ccccc2c1)C(N)=O [Conjugate 8, 2-Fur^4-L-Ala^3-L-Phe^2-L-2-Nal^1-CONH2]
IC50 ± SD (µg/mL), proliferation of HeLa cells [4, 13]: 29.1 ± 2.8 µg/mL | IC50 [4, 14]: 55.3 ± 5.31 µM

C[C@H](NC(=O)[C@H](C)NC(=O)[C@H](Cc1ccc2ccccc2c1)NC(=O)c1ccco1)C(N)=O [Conjugate 3, 2-Fur^4-L-2-Nal^3-L-Ala^2-L-Ala^1-CONH2]
IC50 ± SD (µg/mL), proliferation of HeLa cells [4, 13]: 21.1 ± 0.60 µg/mL | IC50 [4, 14]: 46.8 ± 1.33 µM

C[C@H](NC(=O)[C@H](Cc1ccc2ccccc2c1)NC(=O)[C@H](Cc1ccccc1)NC(=O)c1ccco1)C(N)=O [Conjugate 6, 2-Fur^4-L-Phe^3-L-2-Nal^2-L-Ala^1-CONH2]
IC50 ± SD (µg/mL), proliferation of HeLa cells [4, 13]: 10.4 ± 0.10 µg/mL | IC50 [4, 14]: 19.74 ± 0.18 µM

C[C@H](NC(=O)[C@@H](NC(=O)[C@H](Cc1ccc2ccccc2c1)NC(=O)c1ccco1)c1ccccc1)C(N)=O [Conjugate 10, 2-Fur^4-L-2-Nal^3-L-Phg^2-L-Ala^1-CONH2]
IC50 ± SD (µg/mL), proliferation of HeLa cells [4, 13]: 4.70 ± 0.60 µg/mL | IC50 [4, 14]: 9.16 ± 1.17 µM
